{"source": "patent US20140023611A1", "about": "(priority 2010, published 2014)", "data": [{"target": "T1, rat NaP2b (SLC34A2) (Rattus norvegicus, UniProt Q9JJ09)", "T1 construct": "host or cells: HEK293", "T1 sequence (Q9JJ09 1-695)": "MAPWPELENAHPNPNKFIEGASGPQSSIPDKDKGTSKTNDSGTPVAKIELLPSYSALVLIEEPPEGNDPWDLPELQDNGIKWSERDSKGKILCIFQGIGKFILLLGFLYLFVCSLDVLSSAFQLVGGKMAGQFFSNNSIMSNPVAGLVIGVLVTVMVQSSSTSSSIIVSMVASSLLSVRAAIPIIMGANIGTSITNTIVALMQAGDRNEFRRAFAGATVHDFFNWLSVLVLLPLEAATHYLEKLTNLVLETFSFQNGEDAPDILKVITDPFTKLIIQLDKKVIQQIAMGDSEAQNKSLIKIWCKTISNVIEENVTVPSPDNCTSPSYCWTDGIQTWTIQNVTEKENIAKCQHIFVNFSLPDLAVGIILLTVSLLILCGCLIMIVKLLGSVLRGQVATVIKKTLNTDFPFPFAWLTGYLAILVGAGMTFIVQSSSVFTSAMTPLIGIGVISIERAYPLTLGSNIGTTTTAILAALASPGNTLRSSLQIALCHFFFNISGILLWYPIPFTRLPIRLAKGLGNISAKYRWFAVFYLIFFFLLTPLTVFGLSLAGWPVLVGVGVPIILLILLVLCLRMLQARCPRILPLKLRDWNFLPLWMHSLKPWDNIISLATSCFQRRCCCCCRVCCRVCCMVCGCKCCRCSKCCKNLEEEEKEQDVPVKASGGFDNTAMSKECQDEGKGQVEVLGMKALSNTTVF", "assay": "Inhibition of NaP2b-mediated Pi (33P) uptake in transfected HEK293 cells, rat NaP2b", "format": "cell-based", "settings": "33P Pi uptake, 0.1 mM phosphate, value given as pIC50 range", "method_in_brief": "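HEK293 cells were transiently transfected with NaP2b cDNA using Lipofectamine and grown near confluence. Compounds were tested at twelve concentrations from 0.1 nM to 30 uM in duplicate, and 33P-phosphate uptake was counted by scintillation after lysis. Results are expressed as pIC50.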", "units": {"IC50": "nM"}, "values": [{"smiles": "CCN(CC)c1ccc(NC(=O)c2cccc(CCCOCCOCCOCCOCCNS(=O)(=O)c3ccc(C(=O)N(C)CCOCCOCCOCCOCCOCCOCCOC)cc3)c2)c(-c2cc(C(=O)NCc3cccc(C(F)(F)F)c3)ccn2)c1", "note": "[Example 287, 2-(2-(3-(1-(4-(2,5,8,11,14,17,20-heptaoxadocosan-22-yl(methyl)carbamoyl)phenylsulfonamido)-3,6,9,12-tetraoxapentadecan-15-yl)benzamido)-5-(diethylamino)phenyl)-N-(3-(trifluoromethyl)benzyl)isonicotinamide]", "IC50": "1000 to 7940"}, {"smiles": "CCN(CC)c1ccc(NC(=O)c2cccc(CCCOCCOCCOCCOCCNS(=O)(=O)c3ccc(C(=O)N4CCN(CCOCCOCCOCCOCCOCCOCCOC)C(=O)C4)cc3)c2)c(-c2cc(C(=O)NCc3cccc(C(F)(F)F)c3)ccn2)c1", "note": "[Example 288, 2-(2-(3-(1-(4-(4-(2,5,8,11,14,17,20-heptaoxadocosan-22-yl)-3-oxopiperazine-1-carbonyl)phenylsulfonamido)-3,6,9,12-tetraoxapentadecan-15-yl)benzamido)-5-(diethylamino)phenyl)-N-(3-(trifluoromethyl)benzyl)isonicotinamide]", "IC50": "1000 to 7940"}, {"smiles": "CCN(CC)c1ccc(NC(=O)c2cccc(CCCOCCOCCOCCOCCNS(=O)(=O)c3ccc(CCC(=O)N(CCOC)CCOCCOCCOCCOCCOCCOCCOC)cc3)c2)c(-c2cc(C(=O)NCc3cccc(C(F)(F)F)c3)ccn2)c1", "note": "[Example 295, 2-(5-(diethylamino)-2-(3-(1-(4-(23-(2-methoxyethyl)-24-oxo-2,5,8,11,14,17,20-heptaoxa-23-azahexacosan-26-yl)phenylsulfonamido)-3,6,9,12-tetraoxapentadecan-15-yl)benzamido)phenyl)-N-(3-(trifluoromethyl)benzyl)isonicotinamide]", "IC50": "1000 to 7940"}, {"smiles": "CCN(CC)c1ccc(NC(=O)c2cccc(CCCOCCOCCOCCOCCNS(=O)(=O)c3ccc(CCC(=O)NCCOCCOCCOCCOCCOCCOCCOC)cc3)c2)c(-c2cc(C(=O)NCc3cccc(C(F)(F)F)c3)ccn2)c1", "note": "[Example 296, 2-(5-(diethylamino)-2-(3-(1-(4-(24-oxo-2,5,8,11,14,17,20-heptaoxa-23-azahexacosan-26-yl)phenylsulfonamido)-3,6,9,12-tetraoxapentadecan-15-yl)benzamido)phenyl)-N-(3-(trifluoromethyl)benzyl)isonicotinamide]", "IC50": "1000 to 7940"}, {"smiles": "CCN(CC)c1ccc(NC(=O)c2cccc(CCCOCCOCCOCCOCCNS(=O)(=O)c3ccc(CCC(=O)O)cc3)c2)c(-c2cc(C(=O)N[C@H]3CCCc4ccccc43)ccn2)c1", "note": "[Example 320]", "IC50": "< 1000"}, {"smiles": "CCN(CC)c1ccc(NC(=O)c2cccc(CCCOCCOCCOCCOCCNC(=O)C34CC5CC(CC(C5)C3)C4)c2)c(-c2cc(C(=O)N[C@H]3CCCc4ccccc43)ccn2)c1", "note": "[Example 322]", "IC50": "1000 to 7940"}, {"smiles": "CCN(CC)c1ccc(NC(=O)c2cccc(CCCOCCOCCOCCOCCNC(=O)c3cc[nH]n3)c2)c(-c2cc(C(=O)N[C@H]3CCCc4ccccc43)ccn2)c1", "note": "[Example 323]", "IC50": "< 1000"}, {"smiles": "CCN(CC)c1ccc(NC(=O)c2cccc(CCCOCCOCCOCCOCCNC(=O)c3cccnc3)c2)c(-c2cc(C(=O)N[C@H]3CCCc4ccccc43)ccn2)c1", "note": "[Example 324]", "IC50": "< 1000"}, {"smiles": "CCN(CC)c1ccc(NC(=O)c2cccc(CCCOCCOCCOCCOCCNC(=O)c3ccc(O)cc3)c2)c(-c2cc(C(=O)N[C@H]3CCCc4ccccc43)ccn2)c1", "note": "[Example 325]", "IC50": "< 1000"}, {"smiles": "CCN(CC)c1ccc(NC(=O)c2cccc(CCCOCCOCCOCCOCCNC(=O)c3cscn3)c2)c(-c2cc(C(=O)N[C@H]3CCCc4ccccc43)ccn2)c1", "note": "[Example 326]", "IC50": "< 1000"}, {"smiles": "CN(CCOCCOCCOCCC(=O)OC(C)(C)C)CCN(C)C(=O)c1cccc(C(=O)Nc2ccc(N3CCCCC3)cc2-c2cc(C(=O)N[C@H]3CCCc4ccccc43)ccn2)c1", "note": "[Example 329, tert-butyl 3-methyl-1-[N-methyl-1-(3-{[4-(piperidin-1-yl)-2-(4-{[(1S)-1,2,3,4-tetrahydronaphthalen-1-yl]carbamoyl}pyridin-2-yl)phenyl]carbamoyl}phenyl)formamido]-6,9,12-trioxa-3-azapentadecan-15-oate]", "IC50": "1000 to 7940"}]}]}
